Data from patent publication US20050256134A1, “Use of creatine analogues and creatine kinase modulators for the prevention and treatment of glucose metabolic disorders” (AVICENA GROUP, INC., priority 1995, published 2005).

Tested on: Zuker lean littermates (ZDF +/?)
Test: Creatine compounds as 1% of the diet, glucose and insulin levels in lean littermates
Format: in vivo, rat
Source text: This preliminary study was initiated to gain insight into the potential regulation of glucose levels by creatine compounds in ZDF rats, a widely studied rodent model of NIDDM (Peterson, Lessons from Animal Diabetes, 1994, Pages 225-230). Male Zuker diabetic fatty (ZDF-fa/fa) rats and their lean Zuker littermates (ZDF +/?) were from Genetic Models, Inc., Indianapolis, Ind. […] Hyperglycemia is initially manifested at about 7 weeks of age and all obese rats are fully diabetic by 12 weeks of age (fed blood glucose of greater than 500 mg %). This level of hyperglycemia increases slightly for several weeks thereafter. Between 7 and 10 weeks, blood insulin levels are high but these subsequently drop as the pancreatic beta cells cease to respond to the glucose stimulus. The lean (ZDF/Gmi) rats are the control counterparts of the diabetic animals. These rats have the same genetics as the obese animals except for the obesity trait. No phenotypic differences have been observed between these rats and other typical lean control rats.
Male Zuker diabetic fatty (ZDF-fa/fa) rats and Zuker lean littermates (ZDF +/?) were 12 weeks old when dosing with creatine compounds was initiated. The ZDF-fa/fa rats were completely diabetic. The littermates were the same age. […] Animals were bled regularly throughout the experiment and glucose and insulin levels were determined using standard procedures (Linco RI-13K). […]

SMILES: NC1=NCCN1CC(=O)O [cyclocreatine]
- drop in insulin levels (lean animals): over 50%
- drop in level of glucose (lean rats, vs Day 0, n=3): about 15%
